We go through eight compounds from PubChem BioAssay (NCI).

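48-hour exposure; five concentrations; linearly interpolated endpoints. At the GI50, growth is halved. Definition used: TGI = concentration required for complete inhibition of growth.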

Some test systems named below: A549 NSCLC; SW-620 colon; M14 melanoma; SNB-19 CNS; RPMI-8226 leukemia; OVCAR-8 ovarian; CCRF-CEM leukemia; HOP-62 NSCLC; HT29 colon; OVCAR-3 ovarian.
Common to all, as to assay: inhibition of tumour cell growth, NCI panel, 48 h

For the compound `COc1ccc(/C=C2\CN(Cc3cn(CCNc4ccnc5cc(Cl)ccc45)nn3)C/C(=C\c3ccc(OC)c(OC)c3)C2=O)cc1OC`, the GI50 in the test with A549 NSCLC is 4.73 µM; with SW-620 colon, 2.32 µM; in the test on M14 melanoma, 3.35 µM; in the test with SNB-19 CNS, 3.59 µM; in the test on RPMI-8226 leukemia it was 3 µM; in the test on OVCAR-8 ovarian, 3.94 µM. Also, the GI50 in the test on CCRF-CEM leukemia is 2.54 µM; in the test with HOP-62 NSCLC, 3.9 µM; with HT29 colon, 3.13 µM; with OVCAR-3 ovarian, 2.8 µM. For the same compound, the TGI in the test with A549 NSCLC is 40.4 µM; in the test on SW-620 colon, 6.15 µM; in the test with M14 melanoma, 12.5 µM; in the test on SNB-19 CNS it was over 100 µM; in the test on RPMI-8226 leukemia it was 39 µM; with OVCAR-8 ovarian, over 100 µM. The TGI in the test with CCRF-CEM leukemia was over 100 µM; in the test with HOP-62 NSCLC, 26.2 µM; in the test on HT29 colon, 8.82 µM; with OVCAR-3 ovarian it was 8.57 µM.
Consider `Cc1[nH]nc2c1N=C(c1ccccc1F)c1cc(C(N)=O)ccc1N2`, for which the GI50 is 7.56 µM with A549 NSCLC; 2.34 µM in the test with SW-620 colon; 7.86 µM in the test on M14 melanoma; 6.43 µM in the test on SNB-19 CNS; over 25 µM with RPMI-8226 leukemia; 5.77 µM with OVCAR-8 ovarian. The GI50 in the test on CCRF-CEM leukemia is 1.15 µM; in the test on HOP-62 NSCLC, 3.79 µM; in the test on HT29 colon it was 4.92 µM; in the test on OVCAR-3 ovarian, 2.14 µM. The TGI with A549 NSCLC, in the test with SW-620 colon, with M14 melanoma, in the test with SNB-19 CNS, with RPMI-8226 leukemia and with OVCAR-8 ovarian was over 25 µM in each case. The TGI in the test with CCRF-CEM leukemia was over 14.9 µM; in the test on HOP-62 NSCLC it was 24.4 µM; with HT29 colon, over 25 µM; in the test with OVCAR-3 ovarian, over 20.1 µM.
Turning to `Cc1cc2nc3cc(C)c(N)cc3[n+](-c3ccccc3)c2cc1N`, the GI50 in the test on A549 NSCLC was 14.6 µM; with SW-620 colon, 5.62 µM; in the test on M14 melanoma it was 21.2 µM; in the test on SNB-19 CNS it was 2.06 µM; in the test with RPMI-8226 leukemia it was 4.25 µM; with OVCAR-8 ovarian it was 2.83 µM. Further, the GI50 with CCRF-CEM leukemia was 11.2 µM; with HOP-62 NSCLC, 3.7 µM; in the test with HT29 colon it was 7.3 µM; in the test on OVCAR-3 ovarian, 2.98 µM. Besides, the TGI was over 100 µM in the test on A549 NSCLC; over 45.2 µM in the test with SW-620 colon; over 100 µM in the test on M14 melanoma; over 100 µM in the test on SNB-19 CNS; over 100 µM with RPMI-8226 leukemia; over 100 µM in the test with OVCAR-8 ovarian. The TGI with CCRF-CEM leukemia was over 100 µM; in the test on HOP-62 NSCLC it was over 100 µM; in the test with HT29 colon it was over 100 µM; in the test with OVCAR-3 ovarian it was over 95.7 µM.
Take `O=c1c(Br)cc2c(-c3ccccc3)c3cc(Br)c(O)c(Br)c3oc-2c1Br`: the TGI in the test on A549 NSCLC, in the test with SW-620 colon, in the test with M14 melanoma, with SNB-19 CNS, in the test with RPMI-8226 leukemia and with OVCAR-8 ovarian was over 100 µM in each case. Moreover, the TGI with CCRF-CEM leukemia was over 100 µM; in the test with HOP-62 NSCLC, over 100 µM; in the test on HT29 colon, 39.4 µM; in the test with OVCAR-3 ovarian, over 100 µM.
`CN1CCN(Cc2ccc(NC(=O)c3cncc(C#Cc4cncc5nccnc45)c3)cc2C(F)(F)F)CC1`: the GI50 in the test with A549 NSCLC was 4.3 µM; in the test with SW-620 colon, 0.878 µM; in the test with M14 melanoma, 0.83 µM; with SNB-19 CNS, 9 µM; with RPMI-8226 leukemia it was 1.86 µM; in the test with OVCAR-8 ovarian it was 3.71 µM. For the same compound, the GI50 was 3.98 µM in the test on CCRF-CEM leukemia, 2.68 µM in the test with HOP-62 NSCLC, 0.914 µM in the test on HT29 colon and 4.95 µM in the test with OVCAR-3 ovarian. The TGI with A549 NSCLC stood at 11.4 µM; in the test with SW-620 colon, 7.7 µM; in the test with M14 melanoma, 4.33 µM; in the test with SNB-19 CNS, 18.9 µM; in the test with RPMI-8226 leukemia, 10.6 µM; in the test on OVCAR-8 ovarian it was 24.1 µM. The TGI in the test with CCRF-CEM leukemia was determined as 35 µM; in the test on HOP-62 NSCLC it was 9.8 µM; in the test on HT29 colon, 7.87 µM; in the test with OVCAR-3 ovarian, 15.1 µM.
With `C/C(=N\N=C(\[Se])N(C)C)c1ccccn1`, the TGI came to 13.5 µM with A549 NSCLC; 15.2 µM in the test on SW-620 colon; 3.24 µM in the test on M14 melanoma; 15.9 µM in the test with SNB-19 CNS; 53.2 µM in the test on RPMI-8226 leukemia; 6.46 µM in the test on OVCAR-8 ovarian. In addition, the TGI with CCRF-CEM leukemia came out at 2.1 µM; in the test with HOP-62 NSCLC, 1.33 µM; in the test with HT29 colon it was 14.2 µM; in the test with OVCAR-3 ovarian it was 11.8 µM.
On to `CCc1cc2ncc(CN3CCN(c4ccc(C(=O)NC)nc4)CC3)cc2[nH]c1=O`, for which the GI50 in the test with A549 NSCLC is over 100 µM; with SW-620 colon, over 100 µM; in the test on M14 melanoma it was 92.4 µM; in the test with SNB-19 CNS it was 99.7 µM; in the test with RPMI-8226 leukemia, 40.4 µM; with OVCAR-8 ovarian, over 100 µM. Further, the GI50 is 97.1 µM with CCRF-CEM leukemia, 55.7 µM in the test with HOP-62 NSCLC, 48.2 µM in the test with HT29 colon and 40.5 µM with OVCAR-3 ovarian. In addition, the TGI in the test on A549 NSCLC, with SW-620 colon, with M14 melanoma, in the test with SNB-19 CNS, with RPMI-8226 leukemia and in the test with OVCAR-8 ovarian was over 100 µM throughout. In addition, the TGI in the test on CCRF-CEM leukemia, in the test with HOP-62 NSCLC, with HT29 colon and in the test on OVCAR-3 ovarian was over 100 µM each time.
Regarding `COC(=O)C1C=NNC1C(=O)OC` (stereo not given), the TGI in the test on A549 NSCLC, in the test on SW-620 colon, in the test on M14 melanoma, with SNB-19 CNS, in the test with RPMI-8226 leukemia and in the test on OVCAR-8 ovarian was over 100 µM in each case. Also, the TGI in the test with CCRF-CEM leukemia, in the test with HOP-62 NSCLC, with HT29 colon and in the test on OVCAR-3 ovarian was over 100 µM in each case.
